Laboratory results as given in patent publication US20200046703A1, “COMPOSITIONS AND METHODS FOR TREATMENT OF THE SIDE-EFFECTS ASSOCIATED WITH ADMINISTRATION OF THERAPEUTIC AGENTS” (ASYMMETRIC THERAPEUTICS, LLC, priority 2018, published 2020).
Several values for one entry are separate records, joined by “and”; a condition that tells them apart may be missing. Equal values may be shown once.

How the values were obtained:
Type in all cases: cell-based, human
confluent NHEK cells = test: Confluent NHEK cell viability with/without 5-FU; settings: 5-FU 10 μM alone; relative to control; 120 hours
Description: (§1) In yet another set of experiments, the results of which are shown in Table 4, confluent NHEK cells were exposed to the clinically-relevant dose of 10 μM of 5-FU and different concentrations of sodium hydroxide, oxypurinol, or allopurinol using standard tissue culture methods and incubated at 37° C. Sodium hydroxide concentrations of 1 mM, 2 mM, 3 mM, and 4 mM were tested. Oxypurinol and allopurinol concentrations of 0.1 mM, 0.3 mM, 1.0 mM, and 3.0 mM were tested, both in the presence and in the absence of 10 μM of 5-FU. The relative viability of the cells was determined after 120 hours. The sodium hydroxide trials were only performed to serve as a control.

[1] = Confluent NHEK cell viability with/without 5-FU; settings: human, confluent NHEK cells; 10 μM of 5-FU; read-out: viability compared to a control system without 5-FU
Description: as §1

confluent HPEK cells = test: Confluent HPEK cell viability with/without 5-FU; settings: 5-FU 10 μM alone; relative to control; 120 hours
Description: (§2) Oxypurinol and allopurinol concentrations of 0.3 mM, 1.0 mM, and 3.0 mM, which are ten times higher than those used in the first set of experiments, were tested. An adenine concentration of 0.3 mM, which was the higher concentration used in the first set of experiments, was tested. The relative viability of the cells was determined after 120 hours.

[2] = Confluent HPEK cell viability with/without 5-FU; settings: human, confluent HPEK cells; 10 μM of 5-FU; read-out: viability compared to a control system without 5-FU
Description: as §2

proliferating HGEP cells = test: Proliferating HGEP cell viability with/without 5-FU; settings: 5-FU 10 μM alone; relative to control; 120 hours
Description: (§3) In one set of experiments, the results of which are shown in Table 1, proliferating HGEP cells, commonly used to assess oral mucosal toxicity, were exposed to the clinically-relevant dose of 10 μM of 5-FU and different concentrations of oxypurinol, either alone or with different concentrations of adenine or uracil, using standard tissue culture methods and incubated at 37° C. Oxypurinol concentrations of 0.03 mM, 0.1 mM, and 0.3 mM were tested. Adenine and uracil concentrations of 0.1 mM and 0.3 mM were tested. The relative viability of the cells was determined after 120 hours.

[3] = as above; settings: human, proliferating HGEP cells; 10 μM of 5-FU; read-out: viability compared to a control system without 5-FU
Description: as §3

proliferating HPEK cells = test: Proliferating HPEK cell viability with/without 5-FU; settings: 5-FU 10 μM alone; relative to control; 120 hours
Description: as §3, with “In another” for “In one”, “Table 2,” for “Table 1,”, “proliferating HPEK” for “proliferating HGEP”, “assess skin tissue” for “assess oral mucosal”

[4] = as above; settings: human, proliferating HPEK cells; 10 μM of 5-FU; read-out: viability compared to a control system without 5-FU
Description: as §3, with “In another” for “In one”, “Table 2,” for “Table 1,”, “proliferating HPEK” for “proliferating HGEP”, “assess skin tissue” for “assess oral mucosal”

With O=c1[nH]cc(F)c(=O)[nH]1 [5-FU, 5-fluorouracil, reference compound] the “relative cell viability (AVG)” value (confluent NHEK cells) was 0.42 and 0.4165, the viability at 120 h, 10 µM [1] was 41.6% and the “relative cell viability (AVG)” value (confluent HPEK cells) was 0.64 and 0.6421. For the same compound, the viability at 120 h, 10 µM [2] was 65.1%, the “relative cell viability (AVG)” value (proliferating HGEP cells) was 0.6217 and the viability at 120 h, 10 µM [3] was 62.2%. The “relative cell viability (AVG)” value (proliferating HPEK cells) was 0.6507 and the viability at 120 h, 10 µM [4] was 65.1%.
